# In patent US7364874B2, “Mediucm for detecting Van A and Van B vancomycin-resistant entercocci and method of using the same” (priority 2001, dated 2008):
# Read-outs that look alike come from different tables or passages of the source.
# How the values were obtained:
# [1] = tested on: Enterococcus faecalis that does not carry vancomycine resistance genes (incl. ATCC29212); experiment: Test Example 2: vancomycin MIC changes when D-lactic acid (DL-sodium lactate) is added (checkerboard method); assay type: cell-based; conditions: DL-sodium lactate 0.025-[…]
# [2] = tested on: Enterococcus faecium that does not carry vancomycine resistance genes; experiment: as above; assay type: cell-based; conditions: DL-sodium lactate 0.025-[…]
# [3] = tested on: Enterococcus avium that does not carry vancomycine resistance genes; experiment: as above; assay type: cell-based; conditions: DL-sodium lactate 0.025-[…]
# [4] = tested on: Van C type, Enterococcus casseliflavus; experiment: as above; assay type: cell-based
# [5] = tested on: Van C type, Enterococcus gallinarum; experiment: as above; assay type: cell-based
# [6] = tested on: Van A VRE; experiment: as above; assay type: cell-based, E. faecium
# [7] = tested on: Van B VRE; experiment: as above; assay type: cell-based, E. faecium, E. faecalis
# [8] = tested on: Van A VRE; experiment: microbe, parasite or virus in culture; assay type: cell-based, E. faecium; conditions: Enterococcus, read-out: vancomycin MIC
# [9] = tested on: Van B VRE; experiment: microbe, parasite or virus in culture; assay type: cell-based, E. faecium, E. faecalis; conditions: Enterococcus, read-out: vancomycin MIC
# [10] = tested on: Van C VRE; conditions: cited from earlier work
# [11] = tested on: Van D VRE; conditions: cited from earlier work
# [12] = tested on: Van E VRE; conditions: cited from earlier work
# [13] = tested on: Van G VRE; conditions: cited from earlier work
# [14] = tested on: Van C type, Enterococcus casseliflavus; experiment: microbe, parasite or virus in culture; conditions: read-out: vancomycin MIC, with addition of D-cycloserine, all strains of the group
# [15] = tested on: Van C type, Enterococcus gallinarum; experiment: microbe, parasite or virus in culture; conditions: read-out: vancomycin MIC, with addition of D-cycloserine, all strains of the group
# [16] = tested on: Van A VRE; conditions: carries van A gene; cited from earlier work
# [17] = tested on: Van B VRE; conditions: carries van B gene; cited from earlier work
# [18] = Enterococcus, VRE, read-out: vancomycin MIC
compound,measurement,setting,value
CC(O)C(=O)[O-].[Na+] (racemic) [DL-sodium lactate],effect of the addition of DL-sodium lactate on the vancomycin MIC,[1],did not change the vancomycin MIC
same,effect of the addition of DL-sodium lactate on the vancomycin MIC,[2],did not change the vancomycin MIC
same,effect of the addition of DL-sodium lactate on the vancomycin MIC,[3],did not change the vancomycin MIC
same,effect of the addition of DL-sodium lactate on the vancomycin MIC,[4]; DL-sodium lactate 0.025-[…],The addition of DL-sodium lactate did not change the vancomycin
same,effect of the addition of DL-sodium lactate on the vancomycin MIC,[5]; DL-sodium lactate 0.025-[…],The addition of DL-sodium lactate did not change the vancomycin
same,effect of the addition of DL-sodium lactate on the vancomycin MIC,"[6]; DL-sodium lactate 0.025-[…], 5 strains",increased the vancomycin MIC or maintained the vancomycin MIC as high as more than 512 μg/ml
same,optimum concentration of addition of DL-sodium lactate,[7]; for increasing the vancomycin MIC,0.2 mol/L
same,concentration of DL-sodium lactate at which the organisms tend to grow worse,[7]; growth worse in line with the added amount,more than 0.4 mol/l
CN[C@H](CC(C)C)C(=O)N[C@H]1C(=O)N[C@@H](CC(N)=O)C(=O)N[C@H]2C(=O)N[C@H]3C(=O)N[C@H](C(=O)N[C@H](C(=O)O)c4cc(O)cc(O)c4-c4cc3ccc4O)[C@H](O)c3ccc(c(Cl)c3)Oc3cc2cc(c3O[C@@H]2O[C@H](CO)[C@@H](O)[C@H](O)[C@H]2O[C@H]2C[C@](C)(N)[C@H](O)[C@H](C)O2)Oc2ccc(cc2Cl)[C@H]1O [vancomycin],MIC,[8],> 32 mg/L
same,MIC,[9],> 32 mg/L
same,MIC,"[4]; Enterococcus casseliflavus, read-out: vancomycin MIC, with addition of DL-sodium lactate, all strains of the group",< 32 mg/L
same,MIC,"[5]; Enterococcus gallinarum, GALLINARUM, read-out: vancomycin MIC, with addition of DL-sodium lactate, all strains of the group",< 32 mg/L
same,MIC,[6]; [18],> 32 mg/L
same,MIC,[7]; [18],> 32 mg/L
same,minimum inhibitory concentration (MIC),[10],2 to 32 mg/L
same,minimum inhibitory concentration (MIC),[11],64 to 1024 mg/L
same,minimum inhibitory concentration (MIC),[12],16 mg/L
same,minimum inhibitory concentration (MIC),[13],12 to 16 mg/L
same,MIC,[14],< 32 mg/L
same,MIC,[15],< 32 mg/L
teicoplanin,minimum inhibitory concentration (MIC),[16],16 to 512 mg/L
same,minimum inhibitory concentration (MIC),[17],0.5 to 1 mg/L
same,minimum inhibitory concentration (MIC),[10]; carries van C gene,0.5 to 1 mg/L
same,minimum inhibitory concentration (MIC),[11]; carries van D gene,4 to 1024 mg/L
same,minimum inhibitory concentration (MIC),[12]; carries van E gene,0.5 mg/L
same,minimum inhibitory concentration (MIC),[13]; carries van G gene,0.5 mg/L
